How the values were obtained:
[1] = target: T1, TBK1 (Homo sapiens, UniProt Q9UHD2); assay: TBK biochemical assay; conditions: 10 point 1:4 dose response, 30 uM top concentration, 90 min at 25° C., LabChip EZ Reader II; read-out: TBK1_IC50
T1 sequence (Q9UHD2 1-729): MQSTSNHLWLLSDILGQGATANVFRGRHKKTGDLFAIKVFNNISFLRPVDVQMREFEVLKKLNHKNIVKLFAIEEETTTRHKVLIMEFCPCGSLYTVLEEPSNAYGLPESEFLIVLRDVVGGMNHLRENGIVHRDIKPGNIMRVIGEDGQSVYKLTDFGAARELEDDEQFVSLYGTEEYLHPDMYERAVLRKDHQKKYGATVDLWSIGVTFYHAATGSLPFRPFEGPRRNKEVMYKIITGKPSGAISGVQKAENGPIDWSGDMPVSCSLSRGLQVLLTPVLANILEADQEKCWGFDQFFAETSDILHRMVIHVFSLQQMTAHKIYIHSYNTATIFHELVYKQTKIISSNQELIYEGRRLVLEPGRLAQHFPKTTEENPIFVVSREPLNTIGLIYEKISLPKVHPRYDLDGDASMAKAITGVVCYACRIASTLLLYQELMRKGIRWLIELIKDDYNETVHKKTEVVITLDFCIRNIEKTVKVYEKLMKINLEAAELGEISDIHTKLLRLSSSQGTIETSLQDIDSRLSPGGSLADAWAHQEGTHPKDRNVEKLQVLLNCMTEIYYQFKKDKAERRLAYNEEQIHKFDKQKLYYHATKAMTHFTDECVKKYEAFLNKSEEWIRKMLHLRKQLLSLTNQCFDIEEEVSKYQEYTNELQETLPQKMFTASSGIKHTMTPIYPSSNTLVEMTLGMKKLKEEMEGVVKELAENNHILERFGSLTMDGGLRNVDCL
How it was run: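 Read-out was a Caliper LabChip mobility-shift assay, run after a 90-min, 25 °C reaction of TBK1 with substrate and compounds, quenched with stop buffer. Control wells received staurosporine at 10 uM final.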

[2] = target: T2, IKKε (Homo sapiens, UniProt Q14164); assay: IKKε biochemical assay; conditions: 10 point 1:4 dose response, 30 uM top concentration, 90 min at 25° C., LabChip EZ Reader II; read-out: IKKε_IC50
T2 sequence (Q14164 1-716): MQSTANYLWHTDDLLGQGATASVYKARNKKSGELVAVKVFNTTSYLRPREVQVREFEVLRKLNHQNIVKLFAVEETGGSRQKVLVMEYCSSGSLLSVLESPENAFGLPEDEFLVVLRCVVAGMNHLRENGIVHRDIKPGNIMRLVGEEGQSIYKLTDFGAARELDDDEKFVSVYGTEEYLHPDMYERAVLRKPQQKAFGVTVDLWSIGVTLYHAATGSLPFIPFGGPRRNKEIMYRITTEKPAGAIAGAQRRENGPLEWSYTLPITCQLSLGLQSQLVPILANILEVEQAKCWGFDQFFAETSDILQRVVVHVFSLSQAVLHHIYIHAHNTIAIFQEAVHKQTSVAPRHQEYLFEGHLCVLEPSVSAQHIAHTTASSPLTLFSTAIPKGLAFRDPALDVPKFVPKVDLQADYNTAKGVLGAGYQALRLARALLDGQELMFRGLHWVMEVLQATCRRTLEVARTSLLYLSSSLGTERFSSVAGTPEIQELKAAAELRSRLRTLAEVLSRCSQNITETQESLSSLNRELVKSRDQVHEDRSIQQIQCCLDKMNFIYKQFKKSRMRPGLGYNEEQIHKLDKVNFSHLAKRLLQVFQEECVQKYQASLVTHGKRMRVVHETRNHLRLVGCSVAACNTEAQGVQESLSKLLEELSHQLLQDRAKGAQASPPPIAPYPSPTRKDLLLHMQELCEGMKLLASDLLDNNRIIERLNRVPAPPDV
How it was run: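 Mobility-shift LabChip read-out followed a 90 min, 25° C. reaction of IKKε with substrate and test compound, with DMSO held at 1% final. Reactions were ended with stop buffer. Wells with 10 uM final staurosporine defined complete inhibition, and DMSO-only wells the uninhibited level.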

IC50 [1] [nM] | IC50 [2] [nM] | SMILES
< 100 | < 100 | COc1nc(Nc2nccc(-c3ccc(O[C@H]4CCNC[C@H]4F)c(C#N)c3)n2)ccc1N1CCN(C2COC2)CC1 [Example 198, 2-[[(3R,4S)-3-fluoropiperidin-4-yl]oxy]-5-[2-([6-methoxy-5-[4-(oxetan-3-yl)piperazin-1-yl]pyridin-2-yl]amino)pyrimidin-4-yl]benzonitrile]
< 100 | < 100 | COc1nc(Nc2nccc(-c3ccc(O[C@@H]4CCN(C(=O)[C@H](C)O)C[C@H]4F)c(C#N)c3)n2)ccc1N1CCN(C2COC2)CC1 [Example 202, 2-[(3R,4R)-3-Fluoro-1-((S)-2-hydroxy-propionyl)-piperidin-4-yloxy]-5-{2-[6-methoxy-5-(4-oxetan-3-yl-piperazin-1-yl)-pyridin-2-ylamino]-pyrimidin-4-yl}-benzonitrile]
< 100 | < 100 | C[C@H](O)C(=O)N1CCC(Oc2ccc(-c3ccnc(Nc4cccnc4)n3)cc2C#N)C(F)(F)C1 (stereo partly shown) [Example 205]
< 100 | < 100 | C[C@@H](O)C(=O)N1CCC(Oc2ccc(-c3ccnc(Nc4cccnc4)n3)cc2C#N)C(F)(F)C1 (stereo partly drawn) [Example 206, 2-([33-difluoro-1-[(2R)-2-hydroxypropanoyl]piperidin-4-yl]oxy)-5-[2-[(pyridin-3-yl)amino]pyrimidin-4-yl]benzonitrile]
< 100 | < 100 | C[C@@H](O)C(=O)N1CCC(Oc2ccc(-c3ccnc(Nc4ccncc4)n3)cc2C#N)C(F)(F)C1 (stereo partly drawn) [Example 208, 2-([3,3-difluoro-1-[(2R)-2-hydroxypropanoyl]piperidin-4-yl]oxy)-5-[2-[(pyridin-4-yl)amino]pyrimidin-4-yl]benzonitrile]
< 100 | < 100 | C[C@H](O)C(=O)N1CCC(Oc2ccc(-c3ccnc(Nc4ccccc4)n3)cc2C#N)C(F)(F)C1 (stereo partly drawn) [Example 209, 2-[3,3-Difluoro-1-((S)-2-hydroxy-propionyl)-piperidin-4-yloxy]-5-(2-phenylamino-pyrimidin-4-yl)-benzonitrile]
< 100 | < 100 | N#Cc1cc(-c2ccnc(Nc3ccccc3)n2)ccc1OC1CCN(C(=O)[C@@H](O)CO)CC1(F)F (stereo partly drawn) [Example 210, 2-[1-((S)-2,3-Dihydroxy-propionyl)-3,3-difluoro-piperidin-4-yloxy]-5-(2-phenylamino-pyrimidin-4-yl)-benzonitrile]
< 100 | < 100 | COc1ccc(Nc2nccc(-c3ccc(OC4CCN(C(=O)[C@H](C)O)CC4(F)F)c(C#N)c3)n2)nc1OC (stereo partly drawn) [Example 211, 2-[3,3-Difluoro-1-((S)-2-hydroxy-propionyl)-piperidin-4-yloxy]-5-[2-(5,6-dimethoxy-pyridin-2-ylamino)-pyrimidin-4-yl]-benzonitrile]
< 100 | < 100 | C[C@H](O)C(=O)N1CCC(Oc2ccc(-c3ccnc(Nc4ccc(C5CCN(C6COC6)CC5)cc4)n3)cc2C#N)C(F)(F)C1 (stereo partly drawn) [Example 212, 2-([3,3-difluoro-1-[(2S)-2-hydroxypropanoyl]piperidin-4-yl]oxy)-5-[2-([4-[1-(oxetan-3-yl)piperidin-4-yl]phenyl]amino)pyrimidin-4-yl]benzonitrile]
< 100 | < 100 | C[C@H](O)C(=O)N1CCC(Oc2ccc(-c3ccnc(Nc4ccc(C5CCN(C6COC6)C5)cc4)n3)cc2C#N)C(F)(F)C1 (stereo partly drawn) [Example 213, 2-([3,3-difluoro-1-[(2S)-2-hydroxypropanoyl]piperidin-4-yl]oxy)-5-[2-([4-[1-(oxetan-3-yl)pyrrolidin-3-yl]phenyl]amino)pyrimidin-4-yl]benzonitrile]
< 100 | < 100 | COc1cccc(Nc2nccc(-c3ccc(OC4CCN(C(=O)c5n[nH]c(C)n5)CC4)c(C#N)c3)n2)n1 [Example 218, 5-[2-[(6-methoxypyridin-2-yl)amino]pyrimidin-4-yl]-2-[[1-(5-methyl-1H-1,2,4-triazole-3-carbonyl)piperidin-4-yl]oxy]benzonitrile]

The remaining lines, values behind:

SMILES | IC50 [1] [nM] | IC50 [2] [nM]
COc1nc(Nc2nccc(-c3ccc(O[C@H]4CCN(C(=O)[C@H](C)O)C[C@H]4F)c(C#N)c3)n2)ccc1N1CCN(C2COC2)CC1 [Example 199, 2-[[(3R,4S)-3-fluoro-1-[(2S)-2-hydroxypropanoyl]piperidin-4-yl]oxy]-5-[2-([6-methoxy-5-[4-(oxetan-3-yl)piperazin-1-yl]pyridin-2-yl]amino)pyrimidin-4-yl]benzonitrile] | < 100 | < 100
COc1nc(Nc2nccc(-c3ccc(O[C@H]4CCN(C(=O)[C@H](C)O)C[C@H]4F)c(C#N)c3)n2)ccc1N1CCN(C)CC1 [Example 201, 2-[[(3R,4S)-3-fluoro-1-[(2S)-2-hydroxypropanoyl]piperidin-4-yl]oxy]-5-(2-[[6-methoxy-5-(4-methylpiperazin-1-yl)pyridin-2-yl]amino]pyrimidin-4-yl)benzonitrile] | < 100 | < 100
Cc1nc(C(=O)N2CCC(Oc3ccc(-c4ccnc(Nc5ccc(N6CCN(C)CC6)cc5)n4)cc3C#N)CC2)n[nH]1 [Example 203, 2-[[1-(5-methyl-1H-1,2,4-triazole-3-carbonyl)piperidin-4-yl]oxy]-5-(2-[[4-(4-methylpiperazin-1-yl)phenyl]amino]pyrimidin-4-yl)benzonitrile] | < 100 | < 100
C[C@H](O)C(=O)N1CCC(Oc2ccc(-c3ccnc(Nc4ccncc4)n3)cc2C#N)C(F)(F)C1 (stereo partly drawn) [Example 207, 2-([3,3-difluoro-1-[(2S)-2-hydroxypropanoyl]piperidin-4-yl]oxy)-5-[2-[(pyridin-4-yl)amino]pyrimidin-4-yl]benzonitrile] | < 100 | < 100
C[C@@H](O)C(=O)N1CCC(Oc2ccc(-c3ccnc(Nc4ccc(C5CCN(C6COC6)C5)cc4)n3)cc2C#N)C(F)(F)C1 (stereo partly drawn) [Example 214, 2-([3,3-difluoro-1-[(2R)-2-hydroxypropanoyl]piperidin-4-yl]oxy)-5-[2-([4-[1-(oxetan-3-yl)pyrrolidin-3-yl]phenyl]amino)pyrimidin-4-yl]benzonitrile] | < 100 | < 100
C[C@@H](O)C(=O)N1CCC(Oc2ccc(-c3ccnc(Nc4ccc(N5CCOCC5)cc4)n3)cc2C#N)C(F)(F)C1 (stereo partly drawn) [Example 215, 2-([3,3-difluoro-1-[(2R)-2-hydroxypropanoyl]piperidin-4-yl]oxy)-5-(2-[[4-(morpholin-4-yl)phenyl]amino]pyrimidin-4-yl)benzonitrile] | < 100 | < 100
C[C@H](O)C(=O)N1CCC(Oc2ccc(-c3ccnc(Nc4ccc(N5CCOCC5)cc4)n3)cc2C#N)C(F)(F)C1 (stereo partly drawn) [Example 216, 2-([3,3-difluoro-1-[(2S)-2-hydroxypropanoyl]piperidin-4-yl]oxy)-5-(2-[[4-(morpholin-4-yl)phenyl]amino]pyrimidin-4-yl)benzonitrile] | < 100 | < 100
COc1cc(Nc2nccc(-c3ccc(OC4CCN(C(=O)[C@H](C)O)CC4(F)F)c(C#N)c3)n2)ccc1N1CCN(C2COC2)CC1 (stereo partly drawn) [Example 217, 2-([3,3-difluoro-1-[(2S)-2-hydroxypropanoyl]piperidin-4-yl]oxy)-5-[2-([3-methoxy-4-[4-(oxetan-3-yl)piperazin-1-yl]phenyl]amino)pyrimidin-4-yl]benzonitrile] | < 100 | < 100
C[C@H](O)C(=O)N1CCC(Oc2ccc(-c3ccnc(Nc4ccccn4)n3)cc2C#N)C(F)(F)C1 (stereo partly drawn) [Example 219, 2-(3,3-difluoro-1-((S)-2-hydroxypropanoyl)piperidin-4-yloxy)-5-(2-(pyridin-2-ylamino)pyrimidin-4-yl)benzonitrile] | < 100 | < 100

From patent US20230019491A1, “PYRIMIDINE TBK/IKKe INHIBITOR COMPOUNDS AND USES THEREOF” (Merck Patent GmbH, priority 2017, published 2023)
